Experiments:
mGluR5 [1] = target: mGluR5 (Homo sapiens, UniProt P41594); conditions: cited from earlier work
[2] = target: orthosteric glutamate site of mGluR5 (Homo sapiens, UniProt P41594); conditions: cited from earlier work
mGluR5 [3] = target: T1, mGluR5 (Rattus norvegicus, UniProt P31424); assay: mGluR5 assay on rat cultured cortical astrocytes (Ca2+ mobilization, FLIPR); type: cell-based; conditions: for increase of 1 μM glutamate-induced Ca2+ mobilization: 3 μM compound, 1 μM glutamate (EC20), rat cultured astrocytes, FIG. 1; for agonistic activity in the absence of glutamate: no glutamate, compared to buffer value
T1 construct: a functional expression of mGluR5 receptors; endogenous in cells; host or cells: primary cortical astrocytes from Sprague-Dawley rat embryos (15 days), treated with bFGF and EGF
Protocol: For subsequent seeding, the FCS supplementation was reduced to 10%. After 12 days, cells were subplated by trypsinisation onto poly-D-lysine precoated 384-well plates at a density of 20.000 cells per well in culture buffer supplemented with […] βFGF (basic fibroblast growth factor) (Invitrogen, Basel, Switzerland) and 10 ng/ml EGF (epidermal growth factor) (Invitrogen, Basel, Switzerland).
After 60 min of loading with 4 uM Fluo-4 (TefLabs, Austin, Tex.), the cells were washed three times with 50 μl of PBS Buffer and resuspended in 45 μl of Assay Buffer. The plates were then transferred to a Fluorometric Imaging Plate Reader (FLIPR, Molecular Devices, Sunnyvale, Calif.) for the assessment of intracellular calcium flux. […] The final DMSO concentration in the assay was 0.3%. In each experiment, fluorescence was then monitored as a function of time for 3 minutes and the data analyzed using Microsoft Excel and GraphPad Prism. Each data point was also measured two times.
The concentration-response curves of representative compounds of the present invention in the presence of EC20 of glutamate were generated using the Prism GraphPad program (Graph Pad Software Inc, San Diego, USA).

T1 sequence (P31424 21-1203): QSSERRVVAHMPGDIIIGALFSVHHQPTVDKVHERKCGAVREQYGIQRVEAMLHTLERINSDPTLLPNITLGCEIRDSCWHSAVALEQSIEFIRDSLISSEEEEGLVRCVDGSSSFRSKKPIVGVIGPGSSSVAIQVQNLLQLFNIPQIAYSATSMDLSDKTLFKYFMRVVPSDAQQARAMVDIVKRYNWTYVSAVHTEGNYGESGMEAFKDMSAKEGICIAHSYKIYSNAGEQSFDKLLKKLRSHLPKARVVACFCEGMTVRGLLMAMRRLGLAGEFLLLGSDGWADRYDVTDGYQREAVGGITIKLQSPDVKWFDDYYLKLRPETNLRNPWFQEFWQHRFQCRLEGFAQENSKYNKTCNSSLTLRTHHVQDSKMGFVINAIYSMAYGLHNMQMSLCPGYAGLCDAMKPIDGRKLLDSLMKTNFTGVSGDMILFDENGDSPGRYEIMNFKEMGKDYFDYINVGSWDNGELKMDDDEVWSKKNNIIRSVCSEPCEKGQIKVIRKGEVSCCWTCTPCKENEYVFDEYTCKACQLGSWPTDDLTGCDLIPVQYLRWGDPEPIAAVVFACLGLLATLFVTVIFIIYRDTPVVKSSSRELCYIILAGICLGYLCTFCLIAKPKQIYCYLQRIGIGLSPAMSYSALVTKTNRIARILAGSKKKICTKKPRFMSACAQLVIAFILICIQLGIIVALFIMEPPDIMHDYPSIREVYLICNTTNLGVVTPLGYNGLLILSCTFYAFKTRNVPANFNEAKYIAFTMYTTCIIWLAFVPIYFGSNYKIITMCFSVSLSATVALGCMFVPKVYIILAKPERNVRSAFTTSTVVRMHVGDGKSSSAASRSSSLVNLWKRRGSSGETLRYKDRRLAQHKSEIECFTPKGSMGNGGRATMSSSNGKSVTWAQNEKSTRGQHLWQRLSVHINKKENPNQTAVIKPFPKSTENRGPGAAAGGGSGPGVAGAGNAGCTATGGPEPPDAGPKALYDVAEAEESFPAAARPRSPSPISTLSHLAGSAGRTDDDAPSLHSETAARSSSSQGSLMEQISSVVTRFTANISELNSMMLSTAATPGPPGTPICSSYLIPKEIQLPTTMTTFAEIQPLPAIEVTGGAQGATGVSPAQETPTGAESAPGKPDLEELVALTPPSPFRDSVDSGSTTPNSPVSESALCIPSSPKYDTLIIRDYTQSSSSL
Chain of mGluR5 (Homo sapiens, UniProt P41594) (P41594 21-1212): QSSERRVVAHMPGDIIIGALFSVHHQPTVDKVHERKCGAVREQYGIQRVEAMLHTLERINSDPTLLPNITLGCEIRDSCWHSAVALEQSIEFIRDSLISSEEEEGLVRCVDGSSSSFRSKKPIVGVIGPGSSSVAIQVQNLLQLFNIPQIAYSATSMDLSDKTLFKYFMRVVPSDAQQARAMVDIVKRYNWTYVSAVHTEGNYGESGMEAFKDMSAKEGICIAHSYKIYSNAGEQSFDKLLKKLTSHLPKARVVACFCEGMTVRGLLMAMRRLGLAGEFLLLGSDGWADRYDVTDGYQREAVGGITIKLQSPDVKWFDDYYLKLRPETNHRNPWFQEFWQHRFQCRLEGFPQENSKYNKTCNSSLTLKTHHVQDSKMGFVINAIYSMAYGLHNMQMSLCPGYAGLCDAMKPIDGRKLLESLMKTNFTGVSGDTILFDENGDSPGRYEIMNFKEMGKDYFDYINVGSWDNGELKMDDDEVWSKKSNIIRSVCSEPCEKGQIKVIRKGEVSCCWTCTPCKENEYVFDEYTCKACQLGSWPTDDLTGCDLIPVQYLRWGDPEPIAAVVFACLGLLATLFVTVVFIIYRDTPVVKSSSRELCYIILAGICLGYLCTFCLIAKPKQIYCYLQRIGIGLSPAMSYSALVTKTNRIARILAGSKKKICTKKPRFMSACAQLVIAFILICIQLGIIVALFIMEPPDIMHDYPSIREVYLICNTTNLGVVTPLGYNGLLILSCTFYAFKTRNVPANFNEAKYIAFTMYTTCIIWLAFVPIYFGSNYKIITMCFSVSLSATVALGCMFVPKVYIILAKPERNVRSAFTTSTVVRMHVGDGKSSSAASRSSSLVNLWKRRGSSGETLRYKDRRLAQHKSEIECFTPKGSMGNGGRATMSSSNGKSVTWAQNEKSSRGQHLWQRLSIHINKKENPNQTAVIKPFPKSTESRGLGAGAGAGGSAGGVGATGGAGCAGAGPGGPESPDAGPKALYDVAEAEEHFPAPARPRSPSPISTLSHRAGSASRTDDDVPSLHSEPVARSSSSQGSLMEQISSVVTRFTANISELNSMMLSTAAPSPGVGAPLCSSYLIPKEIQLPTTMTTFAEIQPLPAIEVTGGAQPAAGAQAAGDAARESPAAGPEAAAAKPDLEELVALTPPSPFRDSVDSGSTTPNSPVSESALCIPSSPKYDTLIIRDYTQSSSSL
Chain of orthosteric glutamate site of mGluR5 (P41594 21-1212): as above

## Fc1cccc(C=NN=Cc2cccc(F)c2)c1 [DFB, 3,3′-Difluorobenzaldazine]
mGluR5 [1]
  in vitro potency as mGluR5 positive allosteric modulator: low in vitro potency
[2]
  inhibition of the binding of [3H]-quisqualate to the orthosteric glutamate site: not able to inhibit

## O=C(c1ccc(F)cc1)N1CCC[C@H](c2nc(-c3ccccc3F)no2)C1 [Example 55, (4-Fluoro-phenyl)-{(S)-3-[3-(2-fluoro-phenyl)-[1,2,4]oxadiazol-5-yl]-piperidin-1-yl}-methanone]
mGluR5 [3]
  increase of 1 μM glutamate-induced Ca2+ mobilization: increase
  agonistic activity in the absence of glutamate: no statistically significant agonistic activity

## O=C(c1ccc(F)cc1)N1CCC[C@H](c2nc(-c3ccccn3)no2)C1 [Example 56, (4-Fluoro-phenyl)-[(S)-3-(3-pyridin-2-yl-[1,2,4]oxadiazol-5-yl)-piperidin-1-yl]-methanone]
mGluR5 [3]
  increase of 1 μM glutamate-induced Ca2+ mobilization: increase
  agonistic activity in the absence of glutamate: no statistically significant agonistic activity
